Reference: patent US20120255051A1, “HERBICIDE TOLERANT PLANTS” (priority 2009, published 2012)

Test system: Brassica plants comprising mutant AHAS alleles
Test: Field trial, pre-planting treatment (0, 10, 20, 30 g a.i./ha), two locations in Canada: ERG, EST1, EST2, PPTOX, VIG1, VIG2, VIG3 scores
Assay type: in vivo, Brassica napus
Settings: for establishment (EST2) score, Av / phytotoxicity (PPTOX) score, Av / vigor1 (VIG1) score, Av / vigor2 (VIG2) score, Av: AHAS1 HETO108/AHAS3 HETO104
Source text: Tests were set up and conducted to asses the growth and performance of plants comprising AHAS full knock-out alleles, and to further analyze the correlation between the presence of full knockout and missense AHAS genes in Brassica plants and plant growth and herbicide tolerance of the Brassica plants in the field. To this end, the Brassica plants identified in Example 1 and 2 were backcrossed two times with an elite parent line, and subsequently selfed twice to obtain homozygous plants (BC2S2). Plants were grown as row plots in a split plot design with three replicates (main plots=herbicide treatments, subplots=genotypes) at two locations in Canada. Treatment pre-planting was carried out on the soil about two days before sowing with a dose of 0 (treatment A), 10 (treatment B), 20 (treatment C) or 30 (treatment D) g a.i./ha of thiencarbazone methyl. Herbicide tolerance was measured by scoring for different parameters. The parameter emergence (ERG) was scored at the cotyledon stage on a scale 1-9, where 1 means late emergence and 9 means early emergence. Establishment was scored 14 days after sowing (EST1) and 21 days after sowing (EST2). Scores were from 1 to 9, where 1 is the worst establishment (least plants that emerged), and 9 is the best establishment (most plants emerged). Phytotoxicity (PPTOX) was determined after establishment. Plants were evaluated on a scale of 1 to 9, where 1=completely yellowing, 5=50% of plant is yellow and 9=no yellowing. The vigor scores (see above) were determined at 1-2 leaf stage (VIG1), 7 days after VIG1 (VIG2) and 14 days after VIG1 (VIG3). The average values (Av) and standard deviations (SD) of the scores for the different parameters are represented in Table 7a-g.
Further, the contribution of the knock-out allele to herbicide tolerance conferred by the missense allele was calculated. First, the scores were corrected for a possible effect of the growth per se, independent of herbicide treatment. To this end, the scores for treatments B, C and D were divided by the scores for treatment A for the same genotype and for the same parameter (corrected herbicide tolerance scores). Next, the effect of the knock-out allele to these corrected herbicide tolerance scores obtained by the missense allele was calculated. Therefore, the corrected herbicide tolerance scores for the missense—knock-out allele combination was divided by the corrected herbicide tolerance scores for the missense allele—wild-type combination. In case the knock-out allele has no effect on herbicide tolerance conferred by the missense allele, this ratio should be 1. In case the knock-out allele positively contributes to the herbicide tolerance conferred by the missense allele, this ratio should be higher than 1. The results for the contribution of the knock-out allele to herbicide tolerance conferred by the missense allele as calculated above are shown in table 8.

[1] = AHAS1 HETO108, AHAS3 HETO104, treatment B 10 g a.i./ha pre-planting, Location A
[2] = AHAS1 HETO108, AHAS3 HETO104, treatment B 10 g a.i./ha pre-planting, Location B
[3] = AHAS1 HETO108, AHAS3 HETO104, treatment C 20 g a.i./ha pre-planting, Location A
[4] = AHAS1 HETO108, AHAS3 HETO104, treatment C 20 g a.i./ha pre-planting, Location B
[5] = AHAS1 HETO108, AHAS3 HETO104, treatment D 30 g a.i./ha pre-planting, Location A
[6] = AHAS1 HETO108, AHAS3 HETO104, treatment D 30 g a.i./ha pre-planting, Location B
[7] = AHAS1 HETO108, AHAS3 HETO111, treatment B 10 g a.i./ha pre-planting, Location A
[8] = AHAS1 HETO108, AHAS3 HETO111, treatment B 10 g a.i./ha pre-planting, Location B
[9] = AHAS1 HETO108, AHAS3 HETO111, treatment C 20 g a.i./ha pre-planting, Location A
[10] = AHAS1 HETO108, AHAS3 HETO111, treatment C 20 g a.i./ha pre-planting, Location B
[11] = AHAS1 HETO108, AHAS3 HETO111, treatment D 30 g a.i./ha pre-planting, Location A
[12] = AHAS1 HETO108, AHAS3 HETO111, treatment D 30 g a.i./ha pre-planting, Location B
[13] = AHAS1 HETO108, AHAS3 WT (HETO108+HETO104 series), treatment B 10 g a.i./ha pre-planting, Location A
[14] = AHAS1 HETO108, AHAS3 WT (HETO108+HETO104 series), treatment B 10 g a.i./ha pre-planting, Location B
[15] = AHAS1 HETO108, AHAS3 WT (HETO108+HETO104 series), treatment C 20 g a.i./ha pre-planting, Location A
[16] = AHAS1 HETO108, AHAS3 WT (HETO108+HETO104 series), treatment C 20 g a.i./ha pre-planting, Location B
[17] = AHAS1 HETO108, AHAS3 WT (HETO108+HETO104 series), treatment D 30 g a.i./ha pre-planting, Location A
[18] = AHAS1 HETO108, AHAS3 WT (HETO108+HETO104 series), treatment D 30 g a.i./ha pre-planting, Location B
[19] = AHAS1 HETO108, AHAS3 WT (HETO108+HETO111 series), treatment B 10 g a.i./ha pre-planting, Location A
[20] = AHAS1 HETO108, AHAS3 WT (HETO108+HETO111 series), treatment B 10 g a.i./ha pre-planting, Location B
[21] = AHAS1 HETO108, AHAS3 WT (HETO108+HETO111 series), treatment C 20 g a.i./ha pre-planting, Location A
[22] = AHAS1 HETO108, AHAS3 WT (HETO108+HETO111 series), treatment C 20 g a.i./ha pre-planting, Location B
[23] = AHAS1 HETO108, AHAS3 WT (HETO108+HETO111 series), treatment D 30 g a.i./ha pre-planting, Location A
[24] = AHAS1 HETO108, AHAS3 WT (HETO108+HETO111 series), treatment D 30 g a.i./ha pre-planting, Location B
[25] = 10 g a.i./ha pre-planting (B), Location A
[26] = 10 g a.i./ha pre-planting (B), Location B
[27] = 20 g a.i./ha pre-planting (C), Location A
[28] = 20 g a.i./ha pre-planting (C), Location B

SMILES: COC(=O)c1csc(C)c1S(=O)(=O)NC(=O)n1nc(OC)n(C)c1=O [thiencarbazone-methyl, methyl 4-[(4,5-dihydro-3-methoxy-4-methyl-5-oxo-1H-1,2,4-triazol-1-yl)carbonylsulfamoyl]-5-methylthiophene-3-carboxylate]
- emergence (ERG) score Av [1]: 6.00
- establishment (EST1) score Av, 14 days after sowing [1]: 6.33
- emergence (ERG) score Av [2]: 4.00
- establishment (EST1) score Av, 14 days after sowing [2]: 5.00
- emergence (ERG) score Av [3]: 4.00
- establishment (EST1) score Av, 14 days after sowing [3]: 4.00
- emergence (ERG) score Av [4]: 5.00
- establishment (EST1) score Av, 14 days after sowing [4]: 5.00
- emergence (ERG) score Av [5]: 5.00
- establishment (EST1) score Av, 14 days after sowing [5]: 5.00
- emergence (ERG) score Av [6]: 4.67
- establishment (EST1) score Av, 14 days after sowing [6]: 5.33
- emergence (ERG) score Av [7]: 5.33
- establishment (EST1) score Av, 14 days after sowing [7]: 6.00
- emergence (ERG) score Av [8]: 4.33
- establishment (EST1) score Av, 14 days after sowing [8]: 6.00
- emergence (ERG) score Av [9]: 4.67
- establishment (EST1) score Av, 14 days after sowing [9]: 5.33
- emergence (ERG) score Av [10]: 5.00
- establishment (EST1) score Av, 14 days after sowing [10]: 5.67
- emergence (ERG) score Av [11]: 5.00
- establishment (EST1) score Av, 14 days after sowing [11]: 5.33
- emergence (ERG) score Av [12]: 4.33
- establishment (EST1) score Av, 14 days after sowing [12]: 3.67
- emergence (ERG) score Av [13]: 6.67
- establishment (EST1) score Av, 14 days after sowing [13]: 6.67
- emergence (ERG) score Av [14]: 4.33
- establishment (EST1) score Av, 14 days after sowing [14]: 4.67
- emergence (ERG) score Av [15]: 5.00
- establishment (EST1) score Av, 14 days after sowing [15]: 5.00
- emergence (ERG) score Av [16]: 4.33
- establishment (EST1) score Av, 14 days after sowing [16]: 4.67
- emergence (ERG) score Av [17]: 4.67
- establishment (EST1) score Av, 14 days after sowing [17]: 4.67
- emergence (ERG) score Av [18]: 5.00
- establishment (EST1) score Av, 14 days after sowing [18]: 5.33
- emergence (ERG) score Av [19]: 6.33
- establishment (EST1) score Av, 14 days after sowing [19]: 6.33
- emergence (ERG) score Av [20]: 4.33
- establishment (EST1) score Av, 14 days after sowing [20]: 5.33
- emergence (ERG) score Av [21]: 5.33
- establishment (EST1) score Av, 14 days after sowing [21]: 6.00
- emergence (ERG) score Av [22]: 5.00
- establishment (EST1) score Av, 14 days after sowing [22]: 5.67
- emergence (ERG) score Av [23]: 5.00
- establishment (EST1) score Av, 14 days after sowing [23]: 5.33
- emergence (ERG) score Av [24]: 3.33
- establishment (EST1) score Av, 14 days after sowing [24]: 3.67
- establishment (EST2) score, Av [25]: 6.33
- phytotoxicity (PPTOX) score, Av [25]: 6.00
- vigor1 (VIG1) score, Av [25]: 6.33
- vigor2 (VIG2) score, Av [25]: 7.33
- establishment (EST2) score, Av [26]: 5.00
- vigor2 (VIG2) score, Av [26]: 5.00
- establishment (EST2) score, Av [27]: 4.33
- vigor1 (VIG1) score, Av [27]: 5.00
- vigor2 (VIG2) score, Av [27]: 6.00
- establishment (EST2) score, Av [28]: 5.00
- phytotoxicity (PPTOX) score, Av [28]: 6.00
- vigor1 (VIG1) score, Av [28]: 5.00
